The target of the assay is T1, Glucan Synthase of Candida albicans (Candida albicans, UniProt O13428).
T1 construct: endogenous in cells
Briefly: Inhibition of the Glucan Synthase of Candida albicans (14C-UDP glucose incorporation, membrane proteins). Type of assay: biochemical. The settings on record: Candida albicans membranes, 25° C., 1 hour, radioactivity counted. The procedure: A—Inhibition of the Glucan Synthase of Candida albicans.
Candida albicans membranes were purified according to the process described by Tang et al Antimicrob. Agents Chemother 35, 99–103, 1991. 22.5 μg of membrane proteins are incubated in a mixture of 2 Mm of 14C-UDP glucose (specific activity=0.34 mCi./mmol, 50 μg of α-amylase, 1 Mm of dithiotreitol (DTT), 1 Mm EDTA, 100 Mm NaF, 7 μM of GTP-γ-S, 1M of sucrose and 50 Mm of Tris-HCL (pH 7.8) in a volume of 100 μl. The medium is incubated at 25° C. for 1 hour and the reaction is terminated by adding TCA at a final concentration of 5%. The reaction mixture is transferred onto a pre-humidified glass fibre filter. The filter is washed, dried and its radioactivity is counted. Mulundocandine is used as a positive control. Control of the vehicle is carried out with the same quantity of 1% DMSO. […] The enzyme is prepared according to the process of Beaulieu et al.(Antimicrob. Agents Chemother 38, 937–944, 1994. The protocol used is identical to the protocol described above for the enzyme of Candida albicans except that dithiotreitol is not used in the reaction mixture.

T1 sequence (O13428 1-1897): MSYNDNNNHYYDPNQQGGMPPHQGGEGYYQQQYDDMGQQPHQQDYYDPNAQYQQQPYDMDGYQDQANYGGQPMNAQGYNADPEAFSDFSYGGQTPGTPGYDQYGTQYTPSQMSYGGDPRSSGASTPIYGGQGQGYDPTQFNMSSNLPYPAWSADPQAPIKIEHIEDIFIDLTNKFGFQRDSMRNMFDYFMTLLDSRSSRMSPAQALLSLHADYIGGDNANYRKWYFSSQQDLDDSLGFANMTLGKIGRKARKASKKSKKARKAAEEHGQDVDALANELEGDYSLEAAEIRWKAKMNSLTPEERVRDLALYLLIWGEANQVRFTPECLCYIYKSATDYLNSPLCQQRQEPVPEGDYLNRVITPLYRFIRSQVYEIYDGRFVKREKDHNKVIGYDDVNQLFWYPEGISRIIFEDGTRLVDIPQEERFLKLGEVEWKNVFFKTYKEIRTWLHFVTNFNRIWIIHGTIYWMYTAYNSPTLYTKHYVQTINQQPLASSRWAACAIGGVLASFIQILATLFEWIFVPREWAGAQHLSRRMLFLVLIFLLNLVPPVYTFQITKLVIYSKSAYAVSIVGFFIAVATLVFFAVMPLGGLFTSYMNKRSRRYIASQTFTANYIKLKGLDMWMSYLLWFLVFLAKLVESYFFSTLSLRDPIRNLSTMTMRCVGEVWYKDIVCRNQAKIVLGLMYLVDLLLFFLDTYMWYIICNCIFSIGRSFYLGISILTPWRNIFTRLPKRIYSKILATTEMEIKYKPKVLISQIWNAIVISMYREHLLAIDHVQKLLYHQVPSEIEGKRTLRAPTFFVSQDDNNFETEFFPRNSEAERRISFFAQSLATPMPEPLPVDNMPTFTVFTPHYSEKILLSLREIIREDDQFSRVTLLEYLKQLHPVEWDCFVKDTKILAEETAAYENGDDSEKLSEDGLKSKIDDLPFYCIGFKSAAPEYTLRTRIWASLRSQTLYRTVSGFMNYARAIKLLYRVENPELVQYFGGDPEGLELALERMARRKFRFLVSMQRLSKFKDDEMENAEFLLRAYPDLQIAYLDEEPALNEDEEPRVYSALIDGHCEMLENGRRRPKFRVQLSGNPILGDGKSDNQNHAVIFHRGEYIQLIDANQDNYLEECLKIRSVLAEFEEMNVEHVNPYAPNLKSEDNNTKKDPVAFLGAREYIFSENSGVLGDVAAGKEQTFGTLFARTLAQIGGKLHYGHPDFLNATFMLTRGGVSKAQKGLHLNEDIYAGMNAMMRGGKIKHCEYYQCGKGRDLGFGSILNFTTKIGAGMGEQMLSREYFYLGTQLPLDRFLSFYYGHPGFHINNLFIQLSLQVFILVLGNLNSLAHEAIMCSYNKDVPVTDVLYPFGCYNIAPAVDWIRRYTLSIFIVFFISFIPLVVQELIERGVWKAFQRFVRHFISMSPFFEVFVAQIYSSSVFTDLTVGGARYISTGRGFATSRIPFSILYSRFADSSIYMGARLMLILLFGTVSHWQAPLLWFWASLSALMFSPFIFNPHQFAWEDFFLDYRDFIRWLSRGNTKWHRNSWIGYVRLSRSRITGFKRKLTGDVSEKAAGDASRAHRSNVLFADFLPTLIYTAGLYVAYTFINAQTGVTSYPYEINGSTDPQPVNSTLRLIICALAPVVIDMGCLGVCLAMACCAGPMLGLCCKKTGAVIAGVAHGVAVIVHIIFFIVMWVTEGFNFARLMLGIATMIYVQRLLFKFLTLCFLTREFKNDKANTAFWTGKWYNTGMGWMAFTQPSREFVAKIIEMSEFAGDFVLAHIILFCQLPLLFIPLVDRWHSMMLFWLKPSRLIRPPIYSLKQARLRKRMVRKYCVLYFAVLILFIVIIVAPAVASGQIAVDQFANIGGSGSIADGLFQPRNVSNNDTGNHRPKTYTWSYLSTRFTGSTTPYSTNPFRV
T1 sequence (O42825 1-195 partner limits assumed): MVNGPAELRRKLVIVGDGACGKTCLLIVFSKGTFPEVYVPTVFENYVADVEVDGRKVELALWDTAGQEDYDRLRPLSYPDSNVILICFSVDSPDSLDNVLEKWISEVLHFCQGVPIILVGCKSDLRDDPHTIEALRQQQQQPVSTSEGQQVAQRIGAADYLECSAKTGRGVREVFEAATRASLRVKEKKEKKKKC

In the case of “Trans 1-[4-[(2-aminocyclo-hexyl)-amino]-N2-[[4″-(pentyloxy) [1,1′:4′,1″-terphenyl]-4-yl]-carbonyl]-L-ornithine]-4-[4-(4-hydroxyphenyl)-L-threonine]-5-L-serine-echinocandine B trifluoroacetate (isomer A) [Example 3 isomer A]”, the “Inhibition of the glucan synthase of Candida albicans” value is recorded as “good activity”.

For the origin of these results see patent US7022669B1, “Echinocandin derivatives, method for preparing same and application as antifungal agents” (Aventis Pharma S.A., priority 1999, dated 2006).
